Reference: US20140079836A1, “METHODS AND COMPOSITIONS FOR ALTERING HEALTH, WELLBEING, AND LIFESPAN” (LifeSpan Extension, LLC, priority 2008, published 2014)

System: genes involved in longevity (Array 1)
Test: Custom RT-PCR microarray (Array 1) gene expression in skin fibroblasts, UVB/UVA1
Format: cell-based, human
Details: for RTC gene expression fold change / PPC gene expression fold change: control well
Experimental: Seeding of cells: On Day 1, each cell culture was seeded into 6 well cluster dishes at ˜1.5×10^5 cells in 4 mls medium per well. Three wells were seeded per test condition or control.
Experimental phase: On Day 3, wells were washed 1× with 2 mls medium, fed back 2 mls medium without fetal bovine serum and preincubated for 30-60 minutes before challenge with test or control conditions. After the preincubation, medium was aspirated from the wells and 2.5 mls of test or control condition in medium with 1% fetal bovine serum was pipetted into the appropriate wells.
(3) UVA1, UVB exposed and unexposed cells without test condition were used as controls. The experimental phase ended at 24 hours post UV exposure. Cells from each test and control parameter were then prepped for RNA isolation as described below.
UVB/UVA1 exposure: Cells exposed to UV received 200 mJ/cm^2 UVB/1 MED UVA1 using Thermo Oriel solar simulator model SP66923-3056. Cells were exposed from the bottom of the culture dish. The UV dose delivered to the cells was adjusted for interference from the plastic in the culture dish.
Preparation of RNA: The RNA was isolated using the Qiagen RNEasy Plus Mini Kit according to the manufacturer's protocol which can be found on the World Wilde Web at qiagen.com/literature/Defaultaspx?Term=&Language=EN&LiteratureType=4& ProductCategory=10162. The RNA was quantified and examined for purity using the 260/280 nm read method in a μ Quant spectrophotometer before use in the array.
Creation and Performance of a Custom Microarray (“Array 1”): Through the Custom Array design service of Superarray Bioscience Corporation, a 96 well RT-PCR microarray (“Array 1”) was developed to illustrate genetic responses in cells treated as above for specific genes involved in longevity as well as the relevant quality controls. The array was performed in compliance with manufacturer's guidelines and by recommended manufacturer's protocol as can be found on the World Wilde Web at superarray.com/Manual/perarrayplate.pdf
Custom Microarray Results: The results from the microarrays were determined using the delta CT method which uses comparisons of control genes and threshold cycles of genes of interest to generate relative expression values. The full set of experimental conditions was cross referenced and the data is provided herewith in DATA TABLE 3.
Preparation of RNA: The RNA was isolated using the Qiagen RNEasy Plus Mini Kit according to the manufacturer's protocol which can be found on the World Wide Web at qiagen.com/literature/Default. aspx?Term=&Language=EN&LiteratureType=4&ProductCategory=10162.
The RNA was quantified and examined for purity using the 260/280 nm read method in a μ Quant spectrophotometer before use in the array.
Creation and Performance of the Custom Microarray: Through the Custom Array design service of Superarray Bioscience Corporation, a 96 well RT-PCR Microarray was developed to illustrate genetic responses in cells treated as above for specific genes involved in longevity as well as the relevant quality controls. The array was performed in compliance with manufacturer's guidelines and by recommended manufacturer's protocol as can be found on the World Wide Web at superarray.com/Manual/perarrayplate.pdf.
Custom Microarray Results: The results from the microarrays were determined using the delta CT method which uses comparisons of control genes and threshold cycles of genes of interest to generate relative expression values. The full set of experimental conditions was cross referenced and the data is provided herewith in DATA TABLE 4.
Custom Microarray Results: The results from the microarrays were determined using the delta CT method which uses comparisons of control genes and threshold cycles of genes of interest to generate relative expression values. The full set of experimental conditions was cross referenced and the data is provided herewith in DATA TABLE 5. […]

[1] = donor three vs. donor two idebenone + UVB Continuous Incubation
[2] = donor two idebenone + UVB 4 hr Incubation
[3] = donor two idebenone + UVB Continuous Incubation
[4] = donor two idebenone + UVB vs. Green tea + UVB 4 hr Incubation
[5] = donor two idebenone + UVB vs. Green tea + UVB Continuous Incubation

COC1=C(OC)C(=O)C(CCCCCCCCCCO)=C(C)C1=O [Idebenone, 6-(10-hydroxydecyl)-2,3-dimethoxy-5-methyl-1,4-benzoquin-one]
HSPA1A expression fold change [1]: 2.28
HSPA1B expression fold change [1]: 2.62
HSPA1L expression fold change [1]: 1.61
IFI44 expression fold change [1]: −1.43
IGF1 expression fold change [1]: −1.08
IGF2 expression fold change [1]: −1.16
IL1A expression fold change [1]: 2.20
IL6 expression fold change [1]: 3.97
IL10 expression fold change [1]: 1.14
KRAS expression fold change [1]: 1.18
MAPK14 expression fold change [1]: 1.03
NADSYN1 expression fold change [1]: 2.28
NFKB1 expression fold change [1]: 1.56
NOS2A expression fold change [1]: 1.56
PARP1 expression fold change [1]: 2.05
PARP2 expression fold change [1]: −1.48
PPARG expression fold change [1]: −1.76
PTGS2 expression fold change [1]: 2.44
SHC1 expression fold change [1]: 1.67
SIRT1 expression fold change [1]: −1.04
SOD1 expression fold change [1]: 2.44
SOD2 expression fold change [1]: −1.38
TEP1 expression fold change [1]: 1.31
TERT expression fold change [1]: 2.13
TNF expression fold change [1]: 1.40
TP53 expression fold change [1]: −1.04
ACE expression fold change [2]: 1.22
ACTB expression fold change [2]: −1.01
APOE expression fold change [2]: 1.03
BAX expression fold change [2]: 1.40
BCL2 expression fold change [2]: 1.40
CASP2 expression fold change [2]: −1.53
CASP9 expression fold change [2]: 1.27
CCL4L1 expression fold change [2]: 1.06
CLK1 expression fold change [2]: −1.24
COX1 expression fold change [2]: 1.14
CREBBP expression fold change [2]: 1.10
CYP19A1 expression fold change [2]: 1.40
DDC expression fold change [2]: 1.45
GAPDH expression fold change [2]: −1.95
GH1 expression fold change [2]: −1.04
HIGX1A fold change [2]: −1.42
HLA-DRA expression fold change [2]: 1.22
HPRT1 expression fold change [2]: 1.03
HSPA1A expression fold change [2]: 1.06
HSPA1B expression fold change [2]: 1.56
HSPA1L expression fold change [2]: 1.40
IFI44 expression fold change [2]: 2.20
IGF1 expression fold change [2]: −1.47
IGF2 expression fold change [2]: 1.06
IL1A expression fold change [2]: −2.16
IL6 expression fold change [2]: −11.39
IL10 expression fold change [2]: 1.14
KRAS expression fold change [2]: 1.73
MAPK14 expression fold change [2]: 1.27
NADSYN1 expression fold change [2]: −1.08
NFKB1 expression fold change [2]: 2.20
NOS2A expression fold change [2]: 1.61
PARP1 expression fold change [2]: 1.92
PARP2 expression fold change [2]: 1.22
PPARG expression fold change [2]: 1.18
PTGS2 expression fold change [2]: 1.61
SHC1 expression fold change [2]: 2.06
SIRT1 expression fold change [2]: 1.18
SOD1 expression fold change [2]: −1.08
SOD2 expression fold change [2]: 1.27
TEP1 expression fold change [2]: 1.31
TERT expression fold change [2]: −1.38
TNF expression fold change [2]: −1.20
TP53 expression fold change [2]: −1.64
ACE expression fold change [3]: 1.92
ACTB expression fold change [3]: 1.31
APOE expression fold change [3]: 1.18
BAX expression fold change [3]: −1.04
BCL2 expression fold change [3]: 3.83
CASP2 expression fold change [3]: 1.14
CASP9 expression fold change [3]: 2.13
CCL4L1 expression fold change [3]: 1.40
CLK1 expression fold change [3]: 1.85
COX1 expression fold change [3]: −1.43
CREBBP expression fold change [3]: 1.18
CYP19A1 expression fold change [3]: 1.31
DDC expression fold change [3]: 1.85
GAPDH expression fold change [3]: −1.38
GH1 expression fold change [3]: 3.01
HIGX1A fold change [3]: 1.22
HLA-DRA expression fold change [3]: 2.44
HPRT1 expression fold change [3]: 5.23
HSPA1A expression fold change [3]: 1.50
HSPA1B expression fold change [3]: 3.70
HSPA1L expression fold change [3]: −2.48
IFI44 expression fold change [3]: 1.56
IGF1 expression fold change [3]: 3.45
IGF2 expression fold change [3]: −1.12
IL1A expression fold change [3]: 3.57
IL6 expression fold change [3]: 3.01
IL10 expression fold change [3]: 2.05
KRAS expression fold change [3]: 2.13
MAPK14 expression fold change [3]: 2.44
NADSYN1 expression fold change [3]: 1.56
NFKB1 expression fold change [3]: 3.70
NOS2A expression fold change [3]: 1.98
PARP1 expression fold change [3]: 1.67
PARP2 expression fold change [3]: 2.53
PPARG expression fold change [3]: 3.22
PTGS2 expression fold change [3]: 2.71
SHC1 expression fold change [3]: 1.92
SIRT1 expression fold change [3]: 1.98
SOD1 expression fold change [3]: 1.10
SOD2 expression fold change [3]: 1.03
TEP1 expression fold change [3]: 1.79
TERT expression fold change [3]: 8.50
TNF expression fold change [3]: 1.50
TP53 expression fold change [3]: 1.67
ACE expression fold change [4]: 1.32
ACTB expression fold change [4]: −3.03
APOE expression fold change [4]: 1.04
BAX expression fold change [4]: 1.11
BCL2 expression fold change [4]: 1.19
CASP2 expression fold change [4]: −1.23
CASP9 expression fold change [4]: 1.15
CCL4L1 expression fold change [4]: 10.95
CLK1 expression fold change [4]: −1.11
COX1 expression fold change [4]: −1.19
CREBBP expression fold change [4]: 1.11
CYP19A1 expression fold change [4]: 11.33
DDC expression fold change [4]: 14.95
GAPDH expression fold change [4]: −2.92
GH1 expression fold change [4]: 8.30
HIGX1A fold change [4]: 8.30
HLA-DRA expression fold change [4]: 16.03
HPRT1 expression fold change [4]: 1.04
HSPA1A expression fold change [4]: 1.32
HSPA1B expression fold change [4]: 2.64
HSPA1L expression fold change [4]: 1.87
IFI44 expression fold change [4]: 2.15
IGF1 expression fold change [4]: 4.77
IGF2 expression fold change [4]: 1.00
IL1A expression fold change [4]: 1.28
IL6 expression fold change [4]: −9.83
IL10 expression fold change [4]: 4.29
KRAS expression fold change [4]: −1.11
MAPK14 expression fold change [4]: 1.32
NADSYN1 expression fold change [4]: −1.19
NFKB1 expression fold change [4]: −1.03
NOS2A expression fold change [4]: 17.18
PARP1 expression fold change [4]: 1.52
PARP2 expression fold change [4]: 5.87
PPARG expression fold change [4]: 2.74
PTGS2 expression fold change [4]: 2.22
SHC1 expression fold change [4]: 1.11
SIRT1 expression fold change [4]: 1.63
SOD1 expression fold change [4]: 1.52
SOD2 expression fold change [4]: −1.32
TEP1 expression fold change [4]: 2.55
TERT expression fold change [4]: 3.37
TNF expression fold change [4]: 6.98
TP53 expression fold change [4]: −1.51
ACE gene expression fold change [5]: 1.33
ACTB gene expression fold change [5]: −1.67
APOE gene expression fold change [5]: 1.16
BAX gene expression fold change [5]: −1.45
BCL2 gene expression fold change [5]: −1.10
CASP2 gene expression fold change [5]: −1.79
CASP9 gene expression fold change [5]: 1.58
CCL4L1 gene expression fold change [5]: 4.97
CLK1 gene expression fold change [5]: 1.01
COX1 gene expression fold change [5]: −2.53
CREBBP gene expression fold change [5]: −1.10
CYP19A1 gene expression fold change [5]: 8.07
DDC gene expression fold change [5]: 24.46
GAPDH gene expression fold change [5]: −1.10
GH1 gene expression fold change [5]: 25.33
HIGX1A gene expression fold change [5]: 6.12
HLA-DRA gene expression fold change [5]: 58.18
HPRT1 gene expression fold change [5]: 2.40
HSPA1A gene expression fold change [5]: 1.12
HSPA1B gene expression fold change [5]: 1.16
HSPA1L gene expression fold change [5]: −1.61
IFI44 gene expression fold change [5]: 1.29
IGF1 gene expression fold change [5]: 6.12
IGF2 gene expression fold change [5]: −1.14
IL1A gene expression fold change [5]: 10.65
IL6 gene expression fold change [5]: 1.04
IL10 gene expression fold change [5]: 4.32
KRAS gene expression fold change [5]: 1.53
MAPK14 gene expression fold change [5]: 1.64
NADSYN1 gene expression fold change [5]: 1.12
NFKB1 gene expression fold change [5]: 2.24
NOS2A gene expression fold change [5]: 15.06
PARP1 gene expression fold change [5]: −1.98
PARP2 gene expression fold change [5]: 4.48
PPARG gene expression fold change [5]: 2.16
PTGS2 gene expression fold change [5]: −1.06
SHC1 gene expression fold change [5]: 1.48
SIRT1 gene expression fold change [5]: 1.88
SOD1 gene expression fold change [5]: −1.56
SOD2 gene expression fold change [5]: 1.33
TEP1 gene expression fold change [5]: 1.12
TERT gene expression fold change [5]: 7.53
TNF gene expression fold change [5]: 10.29
TP53 gene expression fold change [5]: 1.88
RTC gene expression fold change (donor two idebenone + UVB vs. Green tea + UVB Continuous Incubation, entry r283): 1.08
PPC gene expression fold change (donor two idebenone + UVB vs. Green tea + UVB Continuous Incubation, entry r289): −1.67
RTC gene expression fold change (donor two idebenone + UVB vs. Green tea + UVB Continuous Incubation, entry r293): 2.09
PPC gene expression fold change (donor two idebenone + UVB vs. Green tea + UVB Continuous Incubation, entry r295): −1.35
